Data set [1] is described as follows: In vitro permeation study of tritiated water through lased human skin. The data set is classed as in vitro ADME. As to conditions: 50 mJ (1.6 J/cm^2) to 1250 mJ (40 J/cm^2); increase at low fluences up to about 5 J/cm^2, then more-or-less constant. The text has this: Histology studies on rat and human skin, irradiated either in vivo or in vitro, show little or no evidence of ablation when Er:YAG laser pulse energies less than about 100-200 mJ are used. (See, e.g., FIG. 25).

Data set [2] can be described thus: In vivo blanching assay (chromameter skin redness) on laser-irradiated forearm spots. Also on record: species or system human. The text has this: In the case of the blanching assay, baseline skin color (redness) measurements were then taken of each spot using a Minolta CR-300 Chromameter (Minolta Inc., NJ). The Er:YAG laser was then used to ablate six 2 mm spots on one forearm, at energies of 40, 80 and 120 mJ. A spot (negative calorimeter control) directly adjacent to the laser irradiated spots remained untouched. Subsequently, a thin film of 1% hydrocortisone ointment was applied to six of the lased spots on the treatment arm. One untouched spot on the contralateral arm was administered a thin layer of Diprolene (β-methasone), which is a strong steroid that can permeate the intact stratum corneum in an amount sufficient to cause measurable skin blanching. An occlusive patch, consisting of simple plastic wrap, was fixed with gauze and dermatological tape over all sites on both arms and left in place for two hours, after which the administered steroids were gently removed with cotton swabs. […] Finally, the skin was clinically assessed for evidence of irritation at the 26 hour evaluation.

Data set [3] can be described thus: Topical alprostadil patch on laser-perforated penis skin. In kind it is in vivo, human. As to conditions: three 2 mm spots, 5 J/cm^2; patch held 45 minutes. The text has this:
The duration of the pulse was approximately 300 μs. The spot size was approximately 2 mm, with an energy fluence of 5 J/cm^2. Single pulses were used. Three 2 mm diameter spots were created on a flaccid penis. Subsequent to ablation a pharmaceutical preparation of alprostadil (Caverject from Pharmacia & Upjohn, Kalamazoo, Mich.) was applied to a small patch consisting of tissue paper. The patch was applied to the multiple perforated areas of the skin on the then flaccid penis and held there with adhesive tape for 45 minutes. After approximately 35 minutes, the patient obtained an erection that was sustained for more than 1 hour.

Data set [4] is described as follows: Permeation of radiolabelled corticosterone or DNA through laser-irradiated human skin in diffusion cells. In kind it is in vitro ADME. The following applies: 2 mm spot, donor removed after 15 minutes. The protocol:
Pieces of human skin were placed in diffusion cells and irradiated with a single pulse of radiant energy produced by an Er:YAG laser. The spot size was 2 mm and the energy of the pulse was measured with a calibrated energy meter. After irradiation, the diffusion cells were placed in a 37 degrees Celsius heating block. Phosphate buffered saline was added to the receptor chamber below the skin and a small stir bar was inserted in the receptor chamber to keep the fluid continually mixed. Control skin was left unirradiated. Small volumes of radiolabelled compounds (either corticosterone or DNA) were then added to the donor chamber and left for 15 minutes before being removed (in the case of corticosterone) or were left for the entire duration of the experiment (in the case of the DNA). Samples were then taken from the receptor chamber at various times after application of the test compound and measured in a scintillation or gamma counter.

Data set [5] can be described thus: Permeation of radiolabelled drugs through Er:YAG laser-irradiated human skin in Franz diffusion cells. The data set is classed as in vitro ADME.
Source text: The output of the Er:YAG laser was passed through an aperture to define it's diameter as 2 mm. Human skin, purchased from a skin bank, was positioned in Franz diffusion cells. The receptor chamber of the cell was filled with 0.9% buffered saline. A single pulse, of measured energy, was used to irradiate the skin in separate diffusion cells. Control skin was left unirradiated. […] In the case of γ-interferon, a 285 mJ pulse was used, and multiple samples were irradiated. […] In the case of cortisone, either 77 mJ or 117 mJ was used. After irradiation, a stirring magnet was place in the receptor chamber of the diffusion cells and the cells were placed in a heating block held at 37° C. […] The donor was left on the skin for the duration of the experiment. At various times post-drug-application, samples were taken from the receptor chamber and the amount of drug present was assayed with either a gamma-counter, or a liquid scintillation counter.

Consider `[3H]O[3H]` [tritiated water], for which, in data set [1], the “permeation through lased human skin” value is on record as “increase in permeation”.
Take `C[C@]12CCC(=O)C=C1CC[C@@H]1[C@@H]2[C@@H](O)C[C@@]2(C)[C@H]1CC[C@]2(O)C(=O)CO` [hydrocortisone]: the “erythema (reddening) of skin, chromameter measurements” value in data set [2] (1% hydrocortisone ointment on spots lased at 40, 80, 120 mJ, occluded two hours, 2-26 hours post-irradiation) is given as “reddening was less than that seen in the control spots”. For the same molecule, the “clinical assessment for irritation” value in data set [2] (26 hour evaluation) is given as “no problems were seen”.
With `CCCCC[C@H](O)/C=C/[C@H]1[C@H](O)CC(=O)[C@@H]1CCCCCCC(=O)O` [alprostadil], in data set [3], the duration of erection entry is “more than 1 hour” and the time to erection result is “approximately 35 minutes”.
For `C[C@]12C[C@H](O)[C@H]3[C@@H](CCC4=CC(=O)CC[C@@]43C)[C@@H]1CC[C@@H]2C(=O)CO` [corticosterone], the “permeation through irradiated skin versus unirradiated controls” value in data set [4] (77 mJ/pulse (sub-ablative)) and in data set [4] (117 mJ pulse) was “enhanced permeation” each time.
Turning to `CCN(CC)CC(=O)Nc1c(C)cccc1C` [Lidocaine, lidocaine], where the note is “30% liquid lidocaine solution applied topically for two minutes after 60 mJ pulse”, the “pain on insertion of 26G-0.5 needle into lased site” value is listed as “no observable pain”. The “pain on full insertion of 22G-1 needle into lased site” value (30% liquid lidocaine solution, 6-minute anesthetic treatment after 60 mJ pulse) was “no observable pain”.

B1: γ-Interferon: radiolabelled gamma-interferon diluted in buffered saline (protein, UniProt P01579 24-161, looked up)
Interferon gamma: QDPYVKEAENLKKYFNAGHSDVADNGTLFLGILKNWKEESDRKIMQSQIVSFYFKLFKNFKDDQSIQKSVETIKEDMNVKFFNSNKKKRDDFEKLTNYSVTDLNVQRKAIHELIQVMAELSPAAKTGKRKRSQMLFRG
modifications: radiolabel
notes: radiolabelled gamma-interferon diluted in buffered saline
In the case of B1, the “Permeability Constant, kp” value in data set [5] was 9.74 +/− 2.05 ×10^−3 cm/hr.

For the origin of these results see US6443945B1, “Laser assisted pharmaceutical delivery and fluid removal” (Transmedica International, Inc., priority 1993, dated 2002).
